We go through 5 compounds from PMC3161826 (Journal of nuclear medicine : official publication, Society …, 2010).

Test [1] concerns the target T1, 18-kDa translocator protein (TSPO) (Homo sapiens, UniProt P30536). The experiment in a line: Competition binding assay with 3H-PK11195 in human brain tissue membranes.
Test [2] has as its system 18-kDa translocator protein (TSPO). Described as above. The following applies: for Ki ratio of LAB to HAB / Ki: brain tissue donors B1–B15; for Ki: read-out: Ki, MABs (single-site model), mixed-affinity binders, mean ± SEM.
The target in test [3] is T1, 18-kDa translocator protein (TSPO). Format: binding. The settings on record: read-out: Ki, HABs; platelets, healthy volunteers P1–P13; single class of high-affinity sites, 9 of 13.
Target sequence in this assay (P30536 2-169): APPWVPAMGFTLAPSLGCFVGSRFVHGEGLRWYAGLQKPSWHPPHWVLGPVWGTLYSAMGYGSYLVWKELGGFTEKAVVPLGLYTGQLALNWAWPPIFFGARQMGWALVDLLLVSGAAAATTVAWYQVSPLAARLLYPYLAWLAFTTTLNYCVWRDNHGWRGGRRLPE
Test [4] deals with 18-kDa translocator protein (TSPO). Format: binding, human. The settings on record: platelets, healthy volunteers.
The target of test [5] is T1, 18-kDa translocator protein (TSPO). In kind it is binding. The settings on record: for Ki: unlabeled PBR28 50 nM in each well.
The target of test [6] is 18-kDa translocator protein (TSPO). The settings on record: brain tissue donors B1–B15; ref Owen et al. ([6]); cited from earlier work.
[7] abbreviates: read-out: Ki, HABs, high-affinity binders, brain tissue donors B1–B15, mean ± SEM.
Where [8] appears, read: read-out: Ki, LABs, low-affinity binders, brain tissue donors B1–B15, mean ± SEM.

Where “and” joins values, the source holds several entries; their conditions need not be identical. Equal values may be shown once. Read-outs that look alike come from different tables or passages of the source.

For `COc1ccc(OC)c(CN(C(C)=O)c2cc(F)ccc2Oc2ccccc2)c1` [DAA1106], the Ki (as a rule, the dissociation constant of the complex between target and ligand, obtained from inhibition or displacement) in test [1] (setting [7]) came to 2.8 ± 0.3 nM; in test [1] (setting [8]) it was 13.1 ± 1.3 nM; in test [2] it was 4.8 ± 0.4 nM. Besides, in test [2] (brain tissue), the “Difference in affinity between HABs and LABs” value (from here on “Difference”) was ~ 4 fold and ~ 5 fold and < 5 fold. Besides, the “Ki ratio of LAB to HAB” value in test [2] stood at 4.7.

As to `CCN(CC)C(=O)Cc1c(-c2ccc(OC)cc2)nn2c(C)cc(C)nc12` [DPA713], the “Difference” value in test [2] (brain tissue) is ~ 4 fold and < 5 fold.

Regarding `COc1ccc(OC)c(CN(C(=O)CF)c2ccccc2Oc2ccccc2)c1` [PBR06], the Ki in test [1] (setting [7]) came to 8.6 ± 2 nM; in test [1] (setting [8]) it was 149 ± 46.6 nM. The “Ki ratio of LAB to HAB” value in test [2] turned out to be 17.

`COc1ccccc1CN(C(C)=O)c1cnccc1Oc1ccccc1` [PBR28, N-{[2-(methyloxy)phenyl]methyl}-N-[4-(phenyloxy)-3-pyridinyl]acetamide]: the Ki in test [1] (Ki, LABs, brain tissue, donors with no history of neurologic disease (B14–B33), single class of low-affinity receptors, 4 of 20) was found to be 237 ± 35 nM; in test [1] (read-out: Ki, HABs, brain tissue, donors with no history of neurologic disease (B14–B33), single class of high-affinity receptors, 9 of 20), 2.9 ± 0.26 nM; in test [3], 3.1 ± 0.57 nM. In addition, the “Mean fraction of high-affinity sites in MABs” value in test [2] (brain tissue, donors with no history of neurologic disease) is 58% ± 6.6; in test [4], 63% ± 9.8. In test [2] (brain tissue, range across MAB subjects), the “Fraction of high-affinity sites in MABs, range of values” is given as 38% to 83. Moreover, the “Reduction (%) in specific signal after block with PBR28 (50 nM), HABs” value in test [5] (PBR28 50 nM, 3H-PK11195 specific signal, HABs, 60 min, 0.05 µM) was 70% and 69.0 ± 4.6 (n = 4) %. Moreover, in test [5] (PBR28 50 nM, 3H-PK11195 specific signal, LABs), the “Reduction (%) in specific signal after block with PBR28 (50 nM), LABs” value was 21% and 21.2 ± 4.8 (n = 4) %. The “Occupancy of binding sites in HABs” value in test [5] (PBR28 at 50 nM, expected occupancy) was “approximately 94%”. Besides, in test [5] (read-out: Occupancy of binding sites in LABs), the receptor occupancy at 0.05 µM was around 21%. Also, the “Ki ratio of LAB to HAB” value in test [6] was 55.

Turning to `CCN(CC)C(=O)Cc1c(-c2ccc(OCCCF)cc2)nc2ccc(Cl)cn12` [PBR111], the inhibition constant (Ki) stood at 15.6 ± 3.7 nM in test [1] (setting [7]); 61.8 ± 10.7 nM in test [1] (setting [8]); 30.3 ± 4.1 nM in test [2]; 51.7 ± 12.2 nM in test [5] (read-out: Ki after block with PBR28 (50 nM), LABs, low-affinity binders); 54.4 ± 5.3 nM in test [5] (read-out: Ki after block with PBR28 (50 nM), MABs, mixed-affinity binders). Also, the “Difference” value in test [2] (brain tissue) was ~ 4 fold and < 5 fold. Also, the “Ki ratio of LAB to HAB” value in test [2] is 4.0.
